Measured values reported in the NIST ThermoML archive (doi:10.1016/j.jct.2019.04.010).
± gives the expanded uncertainty stated by the source.

Assay: xn = mol fraction of the nth substance listed
Conditions: 100 kPa, Liquid; for viscosity: Concentric cylinders viscometry; for mass density: Vibrating tube method

CCCCn1cc[n+](C)c1.O=[N+]([O-])[O-] [1-butyl-3-methylimidazolium nitrate] + CCC(C)O
Conditions | mass density [kg/m3] | viscosity [mPa·s]
293.15 K, x1 = 0.0813 | 860.4 ± 1.6 | 5.41 ± 1.1
293.15 K, x1 = 0.1595 | 904.7 ± 1.5 | 7.32 ± 1.5
293.15 K, x1 = 0.2402 | 944.9 ± 1.4 | 10.17 ± 2
293.15 K, x1 = 0.35 | 991.2 ± 1.3 | 15.43 ± 3.1
293.15 K, x1 = 0.4403 | 1023.7 ± 1.2 | 21.65 ± 4.3
293.15 K, x1 = 0.5597 | 1060.8 ± 1.2 | 33.63 ± 6.7
293.15 K, x1 = 0.6503 | 1085.4 ± 1.2 | 46.65 ± 9.3
293.15 K, x1 = 0.7398 | 1107 ± 1.3 | 65 ± 13
293.15 K, x1 = 0.8502 | 1130.6 ± 1.4 | 100.4 ± 20
293.15 K, x1 = 0.9399 | 1147.7 ± 1.4 | 156.4 ± 31
293.15 K, x1 = 1 | 1158.3 ± 1.5 | 223.54 ± 45
298.15 K, x1 = 0.0813 | 856.7 ± 1.6 | 4.47 ± 0.9
298.15 K, x1 = 0.1595 | 901.2 ± 1.5 | 6.12 ± 1.2
298.15 K, x1 = 0.2402 | 941.3 ± 1.4 | 8.37 ± 1.7
298.15 K, x1 = 0.35 | 987.7 ± 1.3 | 12.73 ± 2.6
298.15 K, x1 = 0.4403 | 1020.3 ± 1.2 | 17.92 ± 3.6
298.15 K, x1 = 0.5597 | 1057.5 ± 1.2 | 27.57 ± 5.5
298.15 K, x1 = 0.6503 | 1082.1 ± 1.2 | 38.2 ± 7.6
298.15 K, x1 = 0.7398 | 1103.8 ± 1.3 | 52.3 ± 10
298.15 K, x1 = 0.8502 | 1127.6 ± 1.4 | 79.2 ± 16
298.15 K, x1 = 0.9399 | 1144.7 ± 1.4 | 119 ± 24
298.15 K, x1 = 1 | 1155.2 ± 1.5 | 168.97 ± 34
303.15 K, x1 = 0.0813 | 852.6 ± 1.6 | 3.85 ± 0.77
303.15 K, x1 = 0.1595 | 897.3 ± 1.5 | 5.31 ± 1.1
303.15 K, x1 = 0.2402 | 937.4 ± 1.4 | 7.21 ± 1.4
303.15 K, x1 = 0.35 | 984.1 ± 1.3 | 10.87 ± 2.2
303.15 K, x1 = 0.4403 | 1016.8 ± 1.2 | 15.15 ± 3
303.15 K, x1 = 0.5597 | 1054.2 ± 1.2 | 22.92 ± 4.6
303.15 K, x1 = 0.6503 | 1078.9 ± 1.2 | 30.82 ± 6.2
303.15 K, x1 = 0.7398 | 1100.8 ± 1.3 | 41.3 ± 8.3
303.15 K, x1 = 0.8502 | 1124.6 ± 1.3 | 62.3 ± 12
303.15 K, x1 = 0.9399 | 1141.8 ± 1.4 | 92 ± 18
303.15 K, x1 = 1 | 1152.3 ± 1.5 | 125.36 ± 25
308.15 K, x1 = 0.0813 | 848.6 ± 1.6 | 3.32 ± 0.66
308.15 K, x1 = 0.1595 | 893.3 ± 1.5 | 4.58 ± 0.92
308.15 K, x1 = 0.2402 | 933.6 ± 1.4 | 6.25 ± 1.2
308.15 K, x1 = 0.35 | 980.4 ± 1.3 | 9.38 ± 1.9
308.15 K, x1 = 0.4403 | 1013.3 ± 1.2 | 12.93 ± 2.6
308.15 K, x1 = 0.5597 | 1050.9 ± 1.2 | 19.27 ± 3.9
308.15 K, x1 = 0.6503 | 1075.7 ± 1.2 | 25.57 ± 5.1
308.15 K, x1 = 0.7398 | 1097.6 ± 1.3 | 33.2 ± 6.6
308.15 K, x1 = 0.8502 | 1121.7 ± 1.3 | 48.8 ± 9.8
308.15 K, x1 = 0.9399 | 1138.9 ± 1.4 | 70.7 ± 14
308.15 K, x1 = 1 | 1149.3 ± 1.5 | 96.74 ± 19
313.15 K, x1 = 0.0813 | 844.6 ± 1.6 | 2.83 ± 0.57
313.15 K, x1 = 0.1595 | 889.5 ± 1.5 | 3.98 ± 0.8
313.15 K, x1 = 0.2402 | 929.8 ± 1.4 | 5.46 ± 1.1
313.15 K, x1 = 0.35 | 976.9 ± 1.3 | 8.16 ± 1.6
313.15 K, x1 = 0.4403 | 1009.9 ± 1.2 | 11.18 ± 2.2
313.15 K, x1 = 0.5597 | 1047.7 ± 1.2 | 16.39 ± 3.3
313.15 K, x1 = 0.6503 | 1072.7 ± 1.2 | 21.49 ± 4.3
313.15 K, x1 = 0.7398 | 1094.7 ± 1.3 | 28 ± 5.6
313.15 K, x1 = 0.8502 | 1118.8 ± 1.3 | 40 ± 8
313.15 K, x1 = 0.9399 | 1136.1 ± 1.4 | 56.6 ± 11
313.15 K, x1 = 1 | 1146.5 ± 1.5 | 75.12 ± 15
318.15 K, x1 = 0.0813 | 840.2 ± 1.6 | 2.44 ± 0.49
318.15 K, x1 = 0.1595 | 885.3 ± 1.5 | 3.47 ± 0.69
318.15 K, x1 = 0.2402 | 925.8 ± 1.4 | 4.81 ± 0.96
318.15 K, x1 = 0.35 | 973.4 ± 1.3 | 7.15 ± 1.4
318.15 K, x1 = 0.4403 | 1006.6 ± 1.2 | 9.72 ± 1.9
318.15 K, x1 = 0.5597 | 1044.5 ± 1.2 | 14.08 ± 2.8
318.15 K, x1 = 0.6503 | 1069.6 ± 1.2 | 18.26 ± 3.7
318.15 K, x1 = 0.7398 | 1091.8 ± 1.3 | 23.5 ± 4.7
318.15 K, x1 = 0.8502 | 1116.1 ± 1.3 | 33 ± 6.6
318.15 K, x1 = 0.9399 | 1133.5 ± 1.4 | 44.4 ± 8.9
318.15 K, x1 = 1 | 1143.8 ± 1.4 | 56.28 ± 11
323.15 K, x1 = 0.0813 | 836 ± 1.6 | 2.16 ± 0.43
323.15 K, x1 = 0.1595 | 881.2 ± 1.5 | 3.06 ± 0.61
323.15 K, x1 = 0.2402 | 921.9 ± 1.4 | 4.26 ± 0.85
323.15 K, x1 = 0.35 | 969.7 ± 1.3 | 6.32 ± 1.3
323.15 K, x1 = 0.4403 | 1003.1 ± 1.2 | 8.53 ± 1.7
323.15 K, x1 = 0.5597 | 1041.3 ± 1.2 | 12.21 ± 2.4
323.15 K, x1 = 0.6503 | 1066.5 ± 1.2 | 15.68 ± 3.1
323.15 K, x1 = 0.7398 | 1088.9 ± 1.3 | 19.7 ± 4
323.15 K, x1 = 0.8502 | 1113.4 ± 1.3 | 27.2 ± 5.5
323.15 K, x1 = 0.9399 | 1130.9 ± 1.4 | 36.6 ± 7.3
323.15 K, x1 = 1 | 1141.2 ± 1.4 | 45.17 ± 9.1
